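Step 1: Grow cells in 96-well plates. Step 2: Expose to compound for 48 hours at 5 concentrations. Step 3: Interpolate endpoints linearly; if unreached, use highest concentration. The concentration for 50% growth inhibition is given as GI50.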 The source made the active and inactive calls. Cut-off read from the data, not from the text of the source: active = GI50 up to about 1.1 µM and inactive = higher.
Tests used:
Experiment in all cases: inhibition of tumour cell growth, NCI panel, 48 h
[1] = system: HL-60
[2] = system: CAKI-1
[3] = system: SN12C
[4] = system: HCT-116
[5] = system: M14
[6] = system: MDA-MB-231
[7] = system: MOLT-4
[8] = system: NCI-H460
[9] = system: SW-620
[10] = system: SK-OV-3
[11] = system: SF-295
[12] = system: OVCAR-5
[13] = system: EKVX
[14] = system: HT-29
[15] = system: HCC 2998
[16] = system: Malme-3M
[17] = system: HCT-15
[18] = system: SNB-75
[19] = system: MCF7

Structure (SMILES)	GI50 [1]	GI50 [2]	GI50 [3]	GI50 [4]	GI50 [5]	GI50 [6]	GI50 [7]	GI50 [8]	GI50 [9]	GI50 [10]	GI50 [11]	GI50 [12]	GI50 [13]	GI50 [14]	GI50 [15]	GI50 [16]	GI50 [17]	GI50 [18]	GI50 [19]
O=c1c2ccccc2n2c(-c3ccc(O)cc3)nnc2n1-c1ccccc1	62.8 µM (inactive)	29.6 µM (inactive)	17.1 µM (inactive)	20.9 µM (inactive)	18.2 µM (inactive)	17.1 µM (inactive)	36.1 µM (inactive)	17.8 µM (inactive)	13.5 µM (inactive)	20.6 µM (inactive)	15.6 µM (inactive)	96.6 µM (inactive)	17 µM (inactive)	22.1 µM (inactive)	49.1 µM (inactive)	21.5 µM (inactive)	23.1 µM	18.7 µM (inactive)	–
NNC(=S)N/N=C(/C(=O)Nc1ccc([N+](=O)[O-])cc1)c1nc2ccc([N+](=O)[O-])cc2nc1O	52.8 µM (inactive)	> 100 µM (inactive)	> 100 µM (inactive)	> 100 µM (inactive)	> 100 µM (inactive)	–	> 100 µM (inactive)	> 100 µM (inactive)	> 100 µM (inactive)	> 100 µM (inactive)	> 100 µM (inactive)	> 100 µM (inactive)	> 100 µM (inactive)	> 100 µM (inactive)	> 100 µM (inactive)	> 100 µM (inactive)	74.6 µM	> 100 µM (inactive)	–
CC1(C)N=c2c(ncn2N)=C(C(N)=O)N1	> 100 µM (inactive)	> 100 µM (inactive)	> 100 µM (inactive)	> 100 µM (inactive)	> 100 µM (inactive)	> 100 µM (inactive)	–	> 100 µM (inactive)	> 100 µM (inactive)	> 100 µM (inactive)	> 100 µM (inactive)	> 100 µM (inactive)	> 100 µM (inactive)	> 100 µM (inactive)	> 100 µM (inactive)	> 100 µM (inactive)	> 100 µM	> 100 µM (inactive)	> 100 µM (inactive)
CN(C)c1ccc(/N=C2/NC(=N\c3ccccc3)/C(=N/c3ccccc3)S2)cc1	> 100 µM (inactive)	> 100 µM (inactive)	> 100 µM (inactive)	85.3 µM (inactive)	> 100 µM (inactive)	> 100 µM (inactive)	89.1 µM (inactive)	> 100 µM (inactive)	> 100 µM (inactive)	48.9 µM (inactive)	> 100 µM (inactive)	> 100 µM (inactive)	> 100 µM (inactive)	> 100 µM (inactive)	> 100 µM (inactive)	> 100 µM (inactive)	> 100 µM	27.2 µM (inactive)	19.9 µM (inactive)
c1ccc2c(c1)cc1n2CC2CN=NC12 (stereo not given)	> 100 µM (inactive)	> 100 µM (inactive)	> 100 µM (inactive)	> 100 µM (inactive)	> 100 µM (inactive)	–	> 100 µM (inactive)	> 100 µM (inactive)	> 100 µM (inactive)	> 100 µM (inactive)	> 100 µM (inactive)	> 100 µM (inactive)	> 100 µM (inactive)	> 100 µM (inactive)	> 100 µM (inactive)	> 100 µM (inactive)	> 100 µM	47.8 µM (inactive)	–
O=C1/C(=C/c2ccccc2O)N=C(c2ccccc2)N1c1nc2ccccc2s1	1.21 µM (inactive)	32.7 µM (inactive)	–	14.3 µM (inactive)	17.1 µM (inactive)	18.3 µM (inactive)	19.5 µM (inactive)	11.2 µM (inactive)	11.2 µM (inactive)	23.4 µM (inactive)	14.7 µM (inactive)	51.4 µM (inactive)	24.5 µM (inactive)	20.9 µM (inactive)	13.7 µM (inactive)	–	6.11 µM	21.4 µM (inactive)	3.37 µM (inactive)
C=C(CCCCC)CN1CCCC1C(C)=O (stereo not given)	4.32 µM (inactive)	34.7 µM (inactive)	29.1 µM (inactive)	27.6 µM (inactive)	41.5 µM (inactive)	–	8.75 µM (inactive)	29 µM (inactive)	> 57.9 µM (inactive)	31.2 µM (inactive)	26.8 µM (inactive)	22.2 µM (inactive)	35 µM (inactive)	29.6 µM (inactive)	32.4 µM (inactive)	41.8 µM (inactive)	31.6 µM	24.7 µM (inactive)	–
COC(=O)/C(C#N)=C1\CCC(OC)N1 (stereo not given)	> 100 µM (inactive)	> 100 µM (inactive)	> 100 µM (inactive)	> 100 µM (inactive)	> 100 µM (inactive)	–	> 100 µM (inactive)	> 100 µM (inactive)	> 100 µM (inactive)	> 100 µM (inactive)	> 100 µM (inactive)	> 100 µM (inactive)	> 100 µM (inactive)	> 100 µM (inactive)	> 100 µM (inactive)	> 100 µM (inactive)	> 100 µM	> 100 µM (inactive)	–

From ChEMBL document CHEMBL1201862, “PubChem BioAssay data set” (2004)
